Assay results taken from patent publication US20240043384A1, “INHIBITORS OF PU.1 FOR THE TREATMENT OF DISEASE” (Board of Regents, The University of Texas System, priority 2021, published 2024).

System: THP-1 CD14
Test: THP-1 CD14 Screening Assay
Format: cell-based
Conditions: Homo sapiens, THP-1, 72 h, THP-1 cells treated with PMA and compound (5-point 10-fold dilution), human CD14 ELISA on media
Method: THP-1 CD14 Screening Assay Protocol:
5×10^4 THP-1 cells were plated per well in a tissue culture-treated 96-well plate. At the time of plating, cells were treated with a final concentration of […] PMA and 0.04% DMSO vehicle, concominant with compounds in a 5-point 10-fold dilution per compound. Cells were treated with PMA and DMSO as a control for differentiation without compound treatment, and with only DMSO as a control for no differentiation and no compound treatment. 500 nM IACS-71432 was added as a control compound across all assay plates.
After incubation at 37° C./5% CO2 for 72 hr, media was collected from the cells and the screening assay was performed using the commercially-available human CD14 SimpleStep ELISA kit from Abcam, according to the following protocol: • 1) ELISA kits were taken out to equilibrate to rt. • 2) Following the protocol listed in the kit, standards were prepared as 1:1 dilutions from 2 ng/ml. • 3) Following the protocol listed in the kit, antibody cocktail was prepared (the volume is contingent on the number of wells required). • 4) 50 μl of standards were added to the appropriate wells, thoroughly mizing the standards before adding to each well. • 5) 25 μl of Sample Diluent (from kit) was added to all sample wells. • 6) Cell plates were centrifuged for 5 min at 300 rcf, with slow acceleration and slow deceleration. • 7) 25 μl of media from cell plates was transferred to assay plates containing standards. • 8) 50 μl of antibody cocktail was added to all of the wells, standards and samples. • 9) Assay plates were sealed tightly and incubated on the plate shaker at 400 rpm for 1 hr at rt. • 10) Wash buffer was prepared following the protocol listed in the kit. • 11) After the hour incubation, assay plates were washed 5 times using 200 μl wash buffer per well per wash. • 12) 100 μl of TMB substrate was added to each well in the dark and incubated on the shaker for 3-4.min, at which point color development was monitored to ensure a robust signal for detection but to avoid oversaturation of signal, for no longer than 10 min. • 13) The absorbance at 607 nm was read on a Perkin Elmer Envision plate reader. • 14) Data was processed using Microsoft Excel and GraphPad Prism.

SMILES | IC50
CN1CCN(c2ccc(S(=O)(=O)NCc3ccncc3)cc2)CC1 [Example 3, 4-(4-methylpiperazin-1-yl)-N-(pyridin-4-ylmethyl)benzenesulfonamide] | 100 to 500 nM
O=S(=O)(NCc1ccncc1)c1ccc(N2CC3(CCC3)C2)cc1 [Example 33, N-(pyridin-4-ylmethyl)-4-(2-azaspiro[3.3]heptan-2-yl)benzenesulfonamide] | 5 to 100 nM
O=S(=O)(NCc1ccncc1)c1ccc(-c2ccccc2)cc1 [Example 37, N-(pyridin-4-ylmethyl)-[1,1′-biphenyl]-4-sulfonamide] | < 5 nM
O=S(=O)(NCc1ccncc1)c1ccc(-c2ccc3c(c2)OCCO3)cc1 [Example 55, 4-(2,3-dihydrobenzo[b]-[1,4]dioxin-6-yl)-N-(pyridin-4-ylmethyl)-benzenesulfonamide] | < 5 nM
O=S(=O)(NCc1ccncc1)c1ccc(C2=CCOCC2)cc1 [Example 12, 4-(3,6-dihydro-2H-pyran-4-yl)-N-(pyridin-4-ylmethyl)-benzenesulfonamide] | 5 to 100 nM
O=S(=O)(NCc1ccncc1)c1ccc(-c2cccc(Cl)n2)cc1 [Example 5, 4-(6-chloropyridin-2-yl)-N-(pyridin-4-ylmethyl)benzenesulfonamide] | 100 to 500 nM
CN1CC=C(c2ccc(S(=O)(=O)NCc3ccncc3)cc2)CC1 [Example 13, 4-(1-methyl-1,2,3,6-tetrahydropyridin-4-yl)-N-(pyridin-4-ylmethyl)-benzenesulfonamide] | 100 to 500 nM
O=S(=O)(NCc1ccncc1)c1ccc(N2CCC3(CC2)CC3)cc1 [Example 35, N-(pyridin-4-ylmethyl)-4-(6-azaspiro[2.5]octan-6-yl)-benzenesulfonamide] | < 5 nM
Cn1ncc2cc(-c3ccc(S(=O)(=O)NCc4ccncc4)cc3)ccc21 [Example 44, 4-(1-methyl-1H-indazol-5-yl)-N-(pyridin-4-ylmethyl)-benzenesulfonamide] | < 5 nM
O=S(=O)(NCc1ccncc1)c1ccc(C2CCC(F)(F)CC2)cc1 [Example 15, 4-(4,4-difluorocyclohexyl)-N-(pyridin-4-ylmethyl)-benzenesulfonamide] | < 5 nM
O=S(=O)(NCc1ccncc1)c1ccc(-c2ccc3cc[nH]c3c2)cc1 [Example 58, 4-(1H-indol-6-yl)-N-(pyridin-4-ylmethyl)-benzenesulfonamide] | < 5 nM
O=S(=O)(NCc1ccncc1)c1ccc(N2CCC(F)(F)C2)cc1 [Example 29, 4-(3,3-difluoropyrrolidin-1-yl)-N-(pyridin-4-ylmethyl)-benzenesulfonamide] | 5 to 100 nM
O=c1[nH]ccc2cc(-c3ccc(S(=O)(=O)NCc4ccncc4)cc3)ccc12 [Example 50, 4-(1-oxo-1,2-dihydro-isoquinolin-6-yl)-N-(pyridin-4-ylmethyl)-benzenesulfonamide] | 100 to 500 nM
O=S(=O)(NCc1ccncc1)c1ccc(OCC2CCCO2)cc1 (centres unmarked) [Example 11, N-(pyridin-4-ylmethyl)-4-((tetrahydrofuran-2-yl)methoxy)benzenesulfonamide] | < 5 nM
O=S(=O)(NCc1ccncc1)c1ccc(-c2cccnc2)cc1 [Example 4, 4-(pyridin-3-yl)-N-(pyridin-4-ylmethyl)benzenesulfonamide] | 100 to 500 nM
O=S(=O)(NCc1ccncc1)c1ccc(N2CCCCC2)cc1 [Example 22, 4-(piperidin-1-yl)-N-(pyridin-4-ylmethyl)-benzenesulfonamide] | 5 to 100 nM
O=S(=O)(NCc1ccncc1)c1ccc(N2CCCC(F)(F)C2)cc1 [Example 27, 4-(3,3-difluoropiperidin-1-yl)-N-(pyridin-4-ylmethyl)-benzenesulfonamide] | 5 to 100 nM
O=S(=O)(NCc1ccncc1)c1ccc(N2CC3(C2)CC(F)(F)C3)cc1 [Example 34, 4-(6,6-difluoro-2-azaspiro[3.3]heptan-2-yl)-N-(pyridin-4-ylmethyl)-benzenesulfonamide] | 5 to 100 nM
O=S(=O)(NCc1ccncc1)c1ccc(C2=CCC(F)(F)CC2)cc1 [Example 14, 4′,4′-difluoro-N-(pyridin-4-ylmethyl)-2′,3′,4′,5′-tetrahydro-[1,1′-biphenyl]-4-sulfonamide] | < 5 nM
O=S(=O)(NCc1ccncc1)c1ccc(-c2ncccc2Cl)cc1 [Example 43, 4-(3-chloropyridin-2-yl)-N-(pyridin-4-ylmethyl)-benzenesulfonamide] | < 5 nM
O=S(=O)(NCc1ccncc1)c1ccc(N2CCOCC2)cc1 [Example 24, 4-morpholino-N-(pyridin-4-ylmethyl)benzenesulfonamide] | 100 to 500 nM
O=S(=O)(NCc1ccnc(F)c1)c1ccc(C2CCCCC2)cc1 [Example 8, 4-cyclohexyl-N-((2-fluoropyridin-4-yl)methyl)benzenesulfonamide] | < 5 nM
O=S(=O)(NCc1ccncc1)c1ccc(C2CCOC2)cc1 (centres unmarked) [Example 19, N-(pyridin-4-ylmethyl)-4-(tetrahydrofuran-3-yl)-benzenesulfonamide] | 5 to 100 nM
Cc1ccnc(-c2ccc(S(=O)(=O)NCc3ccncc3)cc2)c1 [Example 41, 4-(4-methylpyridin-2-yl)-N-(pyridin-4-ylmethyl)-benzenesulfonamide] | < 5 nM
Cc1n[nH]c2cc(-c3ccc(S(=O)(=O)NCc4ccncc4)cc3)ccc12 [Example 59, 4-(3-methyl-1H-indazol-6-yl)-N-(pyridin-4-ylmethyl)-benzenesulfonamide] | < 5 nM
CC1(C)CCN(c2ccc(S(=O)(=O)NCc3ccncc3)cc2)C1 [Example 26, 4-(3,3-dimethylpyrrolidin-1-yl)-N-(pyridin-4-yl-methyl)benzenesulfonamide] | 5 to 100 nM
CC1(C)CCC(c2ccc(S(=O)(=O)NCc3ccncc3)cc2)CC1 [Example 20, 4-(4,4-dimethyl-cyclohexyl)-N-(pyridin-4-ylmethyl) benzenesulfonamide] | < 5 nM
Cc1ccc(-c2ccc(S(=O)(=O)NCc3ccncc3)cc2)nc1 [Example 42, 4-(5-methylpyridin-2-yl)-N-(pyridin-4-ylmethyl)-benzenesulfonamide] | < 5 nM

Same assay, conditions: THP-1 cells treated with PMA and compound (5-point 10-fold dilution), 72 hr; human CD14 ELISA on media

SMILES | IC50
O=S(=O)(NCc1ccncc1)c1ccc(N2CCCC(F)(F)C2)cc1 [Example 31, 4-(3,3-difluoropiperidin-1-yl)-N-(pyridin-4-ylmethyl)-benzenesulfonamide] | < 5 nM
